The test system of one series is MDA-MB-436 cells. Kind of series: Proliferation assay in MDA-MB-436 cells (negative control cell line). The class given is cell-based. The conditions noted are these: Homo sapiens, 144 h, Alamar Blue, read-out: MDA-MB-436 proliferation assay, EC50[M] (arithmetic mean). The essentials: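 KAT6A-amplified ZR-75-1 cells (RPMI 1640, 2.5% FBS) and KAT6A-low MDA-MB-436 cells (DMEM/Ham's F12, 2.5% FBS) were seeded at 3000 cells/well. Treatment lasted 144 h at 37 °C, 5% CO2, in triplicate. Viability was read by Alamar Blue (2 h) fluorescence at […].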

In series [1] the test system is Salmonella tester strain TA1535. Kind of series: Bacterial reverse gene mutation test Ames MPF Penta I, TA1535. The class given is cell-based. The source says:
(§1) The employed commercial assay Ames MPF Penta I comprises the histidine auxotrophic Salmonella tester strains TA98, TA100, TA1535, TA1537 and two tryptophan auxotrophic tester strains E. coli wp2 (E. coli wp2 [pKM101] and E. coli wp2 uvrA, combined exposure). These strains meet the requirements of the OECD guideline 471 for testing chemicals.
(§2) Bacterial strains were exposed to various concentrations of the test compounds in a histidine (His) or tryptophane (Trp) deficient medium. As recommended by ICH S2(R1) guideline, the test was conducted in two assay conditions, with and without addition of microsomal enzymes (S9 mix), taking the potential formation of DNA reactive metabolites via xenobiotic biotransformation into account.
(§3) The potential of the test compound to induce gene mutations is assessed by comparing the control with the test compounds treated bacterial cultures.

A further series deals with T1, KAT6A (Homo sapiens, UniProt Q92794).
T1 construct: Recombinant human His-tagged Kat6a protein (amino acids 194-810); His; made in house; host or cells: Baculovirus-infected Sf9 insect cells
T1 sequence (Q92794 194-810): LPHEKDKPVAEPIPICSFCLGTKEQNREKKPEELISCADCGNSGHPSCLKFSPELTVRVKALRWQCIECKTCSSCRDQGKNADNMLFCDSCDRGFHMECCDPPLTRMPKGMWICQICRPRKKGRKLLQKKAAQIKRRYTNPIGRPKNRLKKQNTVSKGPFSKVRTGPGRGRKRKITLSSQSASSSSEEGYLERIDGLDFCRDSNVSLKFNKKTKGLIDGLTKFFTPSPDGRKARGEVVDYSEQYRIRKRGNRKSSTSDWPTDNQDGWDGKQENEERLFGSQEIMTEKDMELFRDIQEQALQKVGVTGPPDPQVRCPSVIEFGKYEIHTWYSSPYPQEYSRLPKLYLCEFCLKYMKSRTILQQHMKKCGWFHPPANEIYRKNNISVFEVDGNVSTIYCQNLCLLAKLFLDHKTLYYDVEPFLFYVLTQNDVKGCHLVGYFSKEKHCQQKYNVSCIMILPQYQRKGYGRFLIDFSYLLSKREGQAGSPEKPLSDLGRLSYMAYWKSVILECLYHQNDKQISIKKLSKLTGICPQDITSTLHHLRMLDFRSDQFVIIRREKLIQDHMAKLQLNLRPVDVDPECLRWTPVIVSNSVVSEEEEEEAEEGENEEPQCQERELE
The series can be described thus: Kat6a activity assay (TR-FRET, acetylation of biotinylated histone H4 peptide). The class given is biochemical. The conditions noted are these: recombinant human His-tagged Kat6a (amino acids 194-810), 60 mins at 22° C., read-out: KAT6A-DPF/HAT domain IC50 [mol/l] (arithmetic mean). The essentials:
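His-tagged human Kat6a (aa 194-810, Sf9-expressed) with compound (0.01-20 μM) for 60 min at 22° C., pH 8 Tris buffer, 220 nM biotinylated H4 peptide (aa 1-24) and 600 nM acetyl-CoA. Acetyl-K8 detected by Eu-antibody/SA-XL665 TR-FRET (665/620 nm ratio); IC50 from 4-parameter fit.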

Series [2] has as its system ESR1 transcription in MVLN cells. The series can be described thus: Repression of ESR1 transcription, MVLN luciferase reporter assay. Type of series: cell-based. The note with it: Homo sapiens, luciferase signal after 24 h, read-out: MVLN reporter assay, IC50[M] (arithmetic mean). The essentials: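 MVLN cells stably carry an ER-responsive vitellogenin A2 element driving luciferase. After 24 h of compound treatment, luciferase was read in lysate as the measure of ERα transcription. Alamar Blue fluorescence (530/590 nm, 2 h) was read first to control for cell loss; samples were run in duplicate.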

The test system of series [3] is E. coli wp2 (E. coli wp2 [pKM101] and E. coli wp2 uvrA, combined exposure). The series can be described thus: Bacterial reverse gene mutation test Ames MPF Penta I, E. coli wp2. Type of series: cell-based.
Description: as §1, §2, §3

For series [4], the system named is Salmonella tester strain TA100. The series can be described thus: Bacterial reverse gene mutation test Ames MPF Penta I, TA100. The class given is cell-based.
Description: as §1, §2, §3

A value given as a limit tells only on which side of the number the result lay.

As to `O=C(NS(=O)(=O)c1ccccc1-c1ccccc1)c1cc2ccc(C3CC3)cc2o1` [Example 16, N-([1,1′-biphenyl]-2-sulfonyl)-6-cyclopropyl-1-benzofuran-2-carboxamide], in the series on MDA-MB-436 cells, the EC50 is more than 2e-05 M. Besides, the “Result of the bacterial reverse gene mutation test Ames MPF Penta I, TA1535” value in series [1] (with addition of S9 mix) and in series [1] (without addition of S9 mix) was “negative” in each case. In addition, the figures for the IC50 (at KAT6A; in series [2]) were 0.0624 µM and 1.02e-06 M, respectively. Besides, the “Result of the bacterial reverse gene mutation test Ames MPF Penta I, E. coli wp2” value in series [3] (with addition of S9 mix) and in series [3] (without addition of S9 mix) was “negative” throughout. Moreover, the “Result of the bacterial reverse gene mutation test Ames MPF Penta I, TA100” value in series [4] (with addition of S9 mix) and in series [4] (without addition of S9 mix) was “negative” throughout.

Take `CCOc1ccccc1S(=O)(=O)NC(=O)c1cc2ccc(C(C)C)cc2o1` [Example 55, N-(2-Ethoxybenzenesulfonyl)-6-(propan-2-yl)-1-benzofuran-2-carboxamide]: in the series on MDA-MB-436 cells, the EC50 is more than 2e-05 M. The “Result of the bacterial reverse gene mutation test Ames MPF Penta I, TA1535” value in series [1] (with addition of S9 mix) and in series [1] (without addition of S9 mix) was “negative” throughout. In addition, the IC50 at KAT6A worked out at 0.596 µM; in series [2] it was 1.34e-06 M. The “Result of the bacterial reverse gene mutation test Ames MPF Penta I, E. coli wp2” value in series [3] (with addition of S9 mix) and in series [3] (without addition of S9 mix) was “negative” throughout. In addition, the “Result of the bacterial reverse gene mutation test Ames MPF Penta I, TA100” value in series [4] (with addition of S9 mix) and in series [4] (without addition of S9 mix) was “negative” throughout.

For the origin of these results see US20240287048A1, “SUBSTITUTED ACYL SULFONAMIDES FOR TREATING CANCER” (The Broad Institute, Inc., priority 2020, published 2024).
